Laboratory results as given in US20150105252A1, “SUBSTITUTED PYRAZOLES AS HERBICIDES” (E I DU PONT DE NEMOURS AND COMPANY, priority 2013, published 2015).

What was measured:
kochia = experiment: Test C postemergence; type: in vivo, Kochia scoparia; conditions: for Plant response rating (scale of 0 to 100 where 0 is no effect and 100 is complete control), Kochia: Postemergence, 31 g ai/ha, visually evaluated after 13 to 15 days; for Kochia plant response rating / Plant response rating, Kochia: postemergence; for Kochia plant response rating: 62 g ai/ha, scale 0 to 100
In short: (§1)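 Scores of 0 (no effect) to 100 (complete control) were assigned by eye after 13–15 days, comparing treated pots with controls. Soil-applied (preemergence) treatments went onto seeds in loam and sand; foliar (postemergence) treatments onto 1- to 4-leaf plants in peat medium.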

lambsquarters [1] = experiment: Test C preemergence; type: in vivo, Chenopodium album; conditions: preemergence; for Plant response rating, Lambsquarters: 125 g ai/ha, scale 0 to 100, 0 = no effect, 100 = complete control
In short: as §1

oat, wild = experiment: Test C postemergence; type: in vivo, Avena fatua; conditions: for Plant response rating (scale of 0 to 100 where 0 is no effect and 100 is complete control), Oat, Wild: Postemergence, 31 g ai/ha, visually evaluated after 13 to 15 days; for Oat, Wild plant response rating / Plant response rating, Oat, Wild: postemergence; for Oat, Wild plant response rating: 62 g ai/ha, scale 0 to 100
In short: as §1

foxtail, giant = experiment: Test C postemergence; type: in vivo, Setaria faberii; conditions: for Plant response rating (scale of 0 to 100 where 0 is no effect and 100 is complete control), Foxtail, Giant: Postemergence, 31 g ai/ha, visually evaluated after 13 to 15 days; for Foxtail, Giant plant response rating / Plant response rating, Foxtail, Giant: postemergence; for Foxtail, Giant plant response rating: 62 g ai/ha, scale 0 to 100
In short: as §1

blackgrass = experiment: Test C postemergence; type: in vivo, Alopecurus myosuroides; conditions: for Plant response rating (scale of 0 to 100 where 0 is no effect and 100 is complete control), Blackgrass: Postemergence, 31 g ai/ha, visually evaluated after 13 to 15 days; for Blackgrass plant response rating / Plant response rating, Blackgrass: postemergence; for Blackgrass plant response rating: 62 g ai/ha, scale 0 to 100
In short: as §1

ryegrass, Italian = experiment: Test C postemergence; type: in vivo, Lolium multiflorum; conditions: postemergence
In short: as §1

nutsedge, yellow = experiment: Test C postemergence; type: in vivo, Cyperus esculentus; conditions: for Plant response rating (scale of 0 to 100 where 0 is no effect and 100 is complete control), Nutsedge, Yellow: Postemergence, 31 g ai/ha, visually evaluated after 13 to 15 days; for Nutsedge, Yellow plant response rating / Plant response rating, Nutsedge, Yellow: postemergence; for Nutsedge, Yellow plant response rating: 62 g ai/ha, scale 0 to 100
In short: as §1

velvetleaf = experiment: Test C postemergence; type: in vivo, Abutilon theophrasti; conditions: postemergence, 250 g ai/ha; scale 0 to 100 (0 no effect, 100 complete control)
In short: as §1

galium = experiment: Test C postemergence; type: in vivo, Galium aparine; conditions: for Plant response rating (scale of 0 to 100 where 0 is no effect and 100 is complete control), Galium: Postemergence, 31 g ai/ha, visually evaluated after 13 to 15 days; for Galium plant response rating / Plant response rating, Galium: postemergence; for Galium plant response rating: 62 g ai/ha, scale 0 to 100
In short: as §1

oilseed rape = experiment: Test C postemergence; type: in vivo, Brassica napus; conditions: postemergence; for Oilseed Rape plant response rating: 62 g ai/ha, scale 0 to 100
In short: as §1

morningglory = experiment: Test C postemergence; type: in vivo, Ipomoea coccinea; conditions: for Plant response rating (scale of 0 to 100 where 0 is no effect and 100 is complete control), Morningglory: Postemergence, 31 g ai/ha, visually evaluated after 13 to 15 days; for Morningglory plant response rating / Plant response rating, Morningglory: postemergence; for Morningglory plant response rating: 62 g ai/ha, scale 0 to 100
In short: as §1

crabgrass, large = experiment: Test C postemergence; type: in vivo, Digitaria sanguinalis; conditions: for Plant response rating (scale of 0 to 100 where 0 is no effect and 100 is complete control), Crabgrass, Large: Postemergence, 31 g ai/ha, visually evaluated after 13 to 15 days; for Crabgrass, Large plant response rating / Plant response rating, Crabgrass, Large: postemergence; for Crabgrass, Large plant response rating: 62 g ai/ha, scale 0 to 100
In short: as §1

lambsquarters [2] = experiment: Test C postemergence; type: in vivo, Chenopodium album; conditions: for Plant response rating (scale of 0 to 100 where 0 is no effect and 100 is complete control), Lambsquarters: Postemergence, 31 g ai/ha, visually evaluated after 13 to 15 days; for Lambsquarters plant response rating / Plant response rating, Lambsquarters: postemergence; for Lambsquarters plant response rating: 62 g ai/ha, scale 0 to 100
In short: as §1

barnyardgrass = experiment: Test C postemergence; type: in vivo, Echinochloa crus-galli; conditions: for Plant response rating (scale of 0 to 100 where 0 is no effect and 100 is complete control), Barnyardgrass: Postemergence, 31 g ai/ha, visually evaluated after 13 to 15 days; for Barnyardgrass plant response rating / Plant response rating, Barnyardgrass: postemergence; for Barnyardgrass plant response rating: 62 g ai/ha, scale 0 to 100
In short: as §1

waterhemp = experiment: Test C postemergence; type: in vivo, Amaranthus rudis; conditions: postemergence, 250 g ai/ha; scale 0 to 100 (0 no effect, 100 complete control)
In short: as §1

[3] = 250 g ai/ha, scale 0 to 100 (0 no effect, 100 complete control)
[4] = 125 g ai/ha, scale 0 to 100, 0 no effect, 100 complete control
[5] = 31 g ai/ha, visual rating, scale 0 to 100 (0 no effect, 100 complete control), 13 to 15 days
[6] = 62 g ai/ha, scale 0 to 100 (0 no effect, 100 complete control), 13 to 15 days
[7] = 250 g ai/ha, scale 0 to 100, 0 is no effect, 100 is complete control

## CCc1cc(C(=O)NCC2CC2)nn1Cc1ccnc(C(F)(F)F)c1 [Compound 199]
kochia
  Plant response rating (scale of 0 to 100 where 0 is no effect and 100 is complete control), Kochia: 80
  Kochia plant response rating: 85
kochia; [3]
  Plant response rating, Kochia: 95
kochia; [4]
  Plant response rating, Kochia: 90
Lambsquarters [1]; [5]
  Lambsquarters plant response rating: 95
Lambsquarters [1]; [6]
  Lambsquarters plant response rating: 100
Lambsquarters [1]; 13 to 15 days
  Plant response rating, Lambsquarters: 100
Lambsquarters [1]; [7]
  Lambsquarters plant response rating: 98
oat, wild
  Plant response rating (scale of 0 to 100 where 0 is no effect and 100 is complete control), Oat, Wild: 5
  Oat, Wild plant response rating: 10
oat, wild; [3]
  Plant response rating, Oat, Wild: 80
oat, wild; [4]
  Plant response rating, Oat, Wild: 30
foxtail, giant
  Plant response rating (scale of 0 to 100 where 0 is no effect and 100 is complete control), Foxtail, Giant: 10
  Foxtail, Giant plant response rating: 10
foxtail, giant; [3]
  Plant response rating, Foxtail, Giant: 50
foxtail, giant; [4]
  Plant response rating, Foxtail, Giant: 50
blackgrass
  Plant response rating (scale of 0 to 100 where 0 is no effect and 100 is complete control), Blackgrass: 0
  Blackgrass plant response rating: 10
blackgrass; [3]
  Plant response rating, Blackgrass: 30
blackgrass; [4]
  Plant response rating, Blackgrass: 10
ryegrass, Italian; [3]
  Plant response rating, Ryegrass, Italian: 10
ryegrass, Italian; [4]
  Plant response rating, Ryegrass, Italian: 10
nutsedge, yellow
  Plant response rating (scale of 0 to 100 where 0 is no effect and 100 is complete control), Nutsedge, Yellow: 5
  Nutsedge, Yellow plant response rating: 10
nutsedge, yellow; [3]
  Plant response rating, Nutsedge, Yellow: 20
nutsedge, yellow; [4]
  Plant response rating, Nutsedge, Yellow: 45
velvetleaf
  Plant response rating, Velvetleaf: 60
galium
  Plant response rating (scale of 0 to 100 where 0 is no effect and 100 is complete control), Galium: 60
  Galium plant response rating: 70
galium; [3]
  Plant response rating, Galium: 90
galium; [4]
  Plant response rating, Galium: 80
Oilseed rape
  Oilseed Rape plant response rating: 45
Oilseed rape; [3]
  Plant response rating, Oilseed Rape: 65
Oilseed rape; [4]
  Plant response rating, Oilseed Rape: 55
morningglory
  Plant response rating (scale of 0 to 100 where 0 is no effect and 100 is complete control), Morningglory: 30
  Morningglory plant response rating: 50
morningglory; [3]
  Plant response rating, Morningglory: 85
morningglory; [4]
  Plant response rating, Morningglory: 60
crabgrass, large
  Plant response rating (scale of 0 to 100 where 0 is no effect and 100 is complete control), Crabgrass, Large: 10
  Crabgrass, Large plant response rating: 10
crabgrass, large; [3]
  Plant response rating, Crabgrass, Large: 60
crabgrass, large; [4]
  Plant response rating, Crabgrass, Large: 40
Lambsquarters [2]
  Plant response rating (scale of 0 to 100 where 0 is no effect and 100 is complete control), Lambsquarters: 25
  Lambsquarters plant response rating: 85
Lambsquarters [2]; [3]
  Plant response rating, Lambsquarters: 95
Lambsquarters [2]; [4]
  Plant response rating, Lambsquarters: 70
barnyardgrass
  Plant response rating (scale of 0 to 100 where 0 is no effect and 100 is complete control), Barnyardgrass: 10
  Barnyardgrass plant response rating: 10
barnyardgrass; [3]
  Plant response rating, Barnyardgrass: 45
barnyardgrass; [4]
  Plant response rating, Barnyardgrass: 30
waterhemp
  Plant response rating, Waterhemp: 75

## CCc1cc(C(=O)NC2CC2)nn1Cc1ccnc(OCC(F)(F)F)c1 [Compound 200]
kochia
  Plant response rating (scale of 0 to 100 where 0 is no effect and 100 is complete control), Kochia: 90
  Kochia plant response rating: 90
kochia; [3]
  Plant response rating, Kochia: 90
kochia; [4]
  Plant response rating, Kochia: 90
Lambsquarters [1]; [5]
  Lambsquarters plant response rating: 75
Lambsquarters [1]; [6]
  Lambsquarters plant response rating: 100
Lambsquarters [1]; 13 to 15 days
  Plant response rating, Lambsquarters: 100
Lambsquarters [1]; [7]
  Lambsquarters plant response rating: 100
oat, wild
  Plant response rating (scale of 0 to 100 where 0 is no effect and 100 is complete control), Oat, Wild: 5
  Oat, Wild plant response rating: 10
oat, wild; [3]
  Plant response rating, Oat, Wild: 20
oat, wild; [4]
  Plant response rating, Oat, Wild: 10
foxtail, giant
  Plant response rating (scale of 0 to 100 where 0 is no effect and 100 is complete control), Foxtail, Giant: 5
  Foxtail, Giant plant response rating: 10
foxtail, giant; [3]
  Plant response rating, Foxtail, Giant: 15
foxtail, giant; [4]
  Plant response rating, Foxtail, Giant: 15
blackgrass
  Plant response rating (scale of 0 to 100 where 0 is no effect and 100 is complete control), Blackgrass: 5
  Blackgrass plant response rating: 10
blackgrass; [3]
  Plant response rating, Blackgrass: 15
blackgrass; [4]
  Plant response rating, Blackgrass: 15
ryegrass, Italian; [3]
  Plant response rating, Ryegrass, Italian: 15
ryegrass, Italian; [4]
  Plant response rating, Ryegrass, Italian: 15
nutsedge, yellow
  Plant response rating (scale of 0 to 100 where 0 is no effect and 100 is complete control), Nutsedge, Yellow: 0
  Nutsedge, Yellow plant response rating: 0
nutsedge, yellow; [3]
  Plant response rating, Nutsedge, Yellow: 10
nutsedge, yellow; [4]
  Plant response rating, Nutsedge, Yellow: 5
velvetleaf
  Plant response rating, Velvetleaf: 45
galium
  Plant response rating (scale of 0 to 100 where 0 is no effect and 100 is complete control), Galium: 50
  Galium plant response rating: 50
galium; [3]
  Plant response rating, Galium: 75
galium; [4]
  Plant response rating, Galium: 75
Oilseed rape
  Oilseed Rape plant response rating: 30
Oilseed rape; [3]
  Plant response rating, Oilseed Rape: 60
Oilseed rape; [4]
  Plant response rating, Oilseed Rape: 60
morningglory
  Plant response rating (scale of 0 to 100 where 0 is no effect and 100 is complete control), Morningglory: 65
  Morningglory plant response rating: 65
morningglory; [3]
  Plant response rating, Morningglory: 75
morningglory; [4]
  Plant response rating, Morningglory: 75
crabgrass, large
  Plant response rating (scale of 0 to 100 where 0 is no effect and 100 is complete control), Crabgrass, Large: 10
  Crabgrass, Large plant response rating: 10
crabgrass, large; [3]
  Plant response rating, Crabgrass, Large: 25
crabgrass, large; [4]
  Plant response rating, Crabgrass, Large: 10
Lambsquarters [2]
  Plant response rating (scale of 0 to 100 where 0 is no effect and 100 is complete control), Lambsquarters: 55
  Lambsquarters plant response rating: 65
Lambsquarters [2]; [3]
  Plant response rating, Lambsquarters: 95
Lambsquarters [2]; [4]
  Plant response rating, Lambsquarters: 65
barnyardgrass
  Plant response rating (scale of 0 to 100 where 0 is no effect and 100 is complete control), Barnyardgrass: 0
  Barnyardgrass plant response rating: 5
barnyardgrass; [3]
  Plant response rating, Barnyardgrass: 10
barnyardgrass; [4]
  Plant response rating, Barnyardgrass: 5
waterhemp
  Plant response rating, Waterhemp: 85
